Data taken from US20240327364A1, “THERAPEUTIC TARGETING OF GPR68 TO INDUCE FERROPTOSIS” (University Of Maryland, Baltimore, priority 2023, published 2024).

Legend:
MARK2 = target: T1, MARK2 (Homo sapiens, UniProt Q7KZI7); experiment: KinomeScan; type: binding; conditions: read-out: % Control
T1 construct: purchased DiscoveRx (Fremont, CA)

FAK = target: T2, FAK (Homo sapiens, UniProt Q05397); experiment: KinomeScan; type: binding; conditions: read-out: % Control
T2 construct: purchased DiscoveRx (Fremont, CA)

GCN2(Kin.Dom.2, S808G) = target: T3, GCN2(Kin.Dom.2, S808G) (Homo sapiens, UniProt Q9P2K8, S808G); experiment: KinomeScan; type: binding; conditions: read-out: % Control
T3 construct: GCN2(Kin.Dom.2, S808G); purchased DiscoveRx (Fremont, CA)

NEK3 = target: T4, NEK3 (Homo sapiens, UniProt P51956); experiment: KinomeScan; type: binding; conditions: read-out: % Control
T4 construct: purchased DiscoveRx

EGFR(G719C) = target: T5, EGFR(G719C) (Homo sapiens, UniProt P00533, G719C); experiment: KinomeScan; type: binding; conditions: read-out: % Control
T5 construct: purchased DiscoveRx (Fremont, CA), KinomeScan service

CAMK1 = target: T6, CAMK1 (Homo sapiens, UniProt Q14012); experiment: KinomeScan; type: binding; conditions: read-out: % Control
T6 construct: purchased DiscoveRx (KinomeScan service)

MLK1 = target: T7, MLK1 (Homo sapiens, UniProt P80192); experiment: KinomeScan; type: binding; conditions: read-out: % Control
T7 construct: purchased DiscoveRx

EPHA3 = target: T8, EPHA3 (Homo sapiens, UniProt P29320); experiment: KinomeScan; type: binding; conditions: read-out: % Control
T8 construct: purchased DiscoveRx (Fremont, CA)

ChemR23 = target: T9, ChemR23 (Homo sapiens, UniProt Q99788); experiment: GPCR Profiler; type: cell-based
T9 construct: host or cells: Chem-1 cells with Gα15

EGFR(T790M) = target: T10, EGFR(T790M) (Homo sapiens, UniProt P00533, T790M); experiment: KinomeScan; type: binding; conditions: read-out: % Control
T10 construct: purchased DiscoveRx (Fremont, CA)

ERBB2 = target: T11, ERBB2 (Homo sapiens, UniProt P04626); experiment: KinomeScan; type: binding; conditions: read-out: % Control
T11 construct: purchased DiscoveRx (Fremont, CA)

PRKCD = target: T12, PRKCD (Homo sapiens, UniProt Q05655); experiment: KinomeScan; type: binding; conditions: read-out: % Control
T12 construct: purchased DiscoveRx (Fremont, CA)

ROCK2 = target: T13, ROCK2 (Homo sapiens, UniProt O75116); experiment: KinomeScan; type: binding; conditions: read-out: % Control
T13 construct: purchased DiscoveRx (Fremont, CA)

PIK4CB = target: T14, PIK4CB (Homo sapiens, UniProt Q9UBF8); experiment: KinomeScan; type: binding; conditions: read-out: % Control
T14 construct: purchased DiscoveRx (Fremont, CA)

CAMK2A = target: T15, CAMK2A (Homo sapiens, UniProt Q9UQM7); experiment: KinomeScan; type: binding; conditions: read-out: % Control
T15 construct: purchased DiscoveRx (KinomeScan service)

PIK3CA(I800L) = target: T16, PIK3CA(I800L) (Homo sapiens, UniProt P42336, I800L); experiment: KinomeScan; type: binding; conditions: read-out: % Control
T16 construct: purchased DiscoveRx (Fremont, CA)

EPHA5 = target: T17, EPHA5 (Homo sapiens, UniProt P54756); experiment: KinomeScan; type: binding; conditions: read-out: % Control
T17 construct: purchased DiscoveRx (Fremont, CA)

CCR1 = target: T18, CCR1 (Homo sapiens, UniProt P32246); experiment: GPCR Profiler; type: cell-based
T18 construct: host or cells: Chem-1 cells with Gα15

PCTK1 = target: T19, PCTK1 (Homo sapiens, UniProt Q00536); experiment: KinomeScan; type: binding; conditions: read-out: % Control
T19 construct: purchased DiscoveRx

PKAC-beta = target: T20, PKAC-beta (Homo sapiens, UniProt P22694); experiment: KinomeScan; type: binding; conditions: read-out: % Control
T20 construct: purchased DiscoveRx (Fremont, CA)

TSH = target: T21, TSH (Homo sapiens, UniProt P16473); experiment: GPCR Profiler; type: cell-based
T21 construct: host or cells: Chem-1 cells with Gα15

PDPK1 = target: T22, PDPK1 (Homo sapiens, UniProt O15530); experiment: KinomeScan; type: binding; conditions: read-out: % Control
T22 construct: purchased DiscoveRx (Fremont, CA)

NLK = target: T23, NLK (Homo sapiens, UniProt Q9UBE8); experiment: KinomeScan; type: binding; conditions: read-out: % Control
T23 construct: purchased DiscoveRx

ACVR2B = target: T24, ACVR2B (Homo sapiens, UniProt Q13705); experiment: KinomeScan; type: binding; conditions: read-out: % Control
T24 construct: purchased DiscoveRx

ASK1 = target: T25, ASK1 (Homo sapiens, UniProt Q99683); experiment: KinomeScan; type: binding; conditions: read-out: % Control
T25 construct: purchased DiscoveRx (Fremont, CA)

FPR2 = target: T26, FPR2 (Homo sapiens, UniProt P25090); experiment: GPCR Profiler; type: cell-based
T26 construct: host or cells: Chem-1 cells expressing Gα15

OX2 = target: T27, OX2 (Homo sapiens, UniProt O43614); experiment: GPCR Profiler; type: cell-based
T27 construct: host or cells: Chem-1 cells expressing Gα15

GPR68 = GPR68 (Homo sapiens, UniProt Q15743); experiment: SRE-luciferase assay, GPR68-transfected HEK293 cells; type: cell-based; conditions: 10 μM OGM2
Experimental: 12-well plates of cells were transfected with 1 μg DNA using Lipofectamine 3000 with sre:luciferase and either the vector backbone, GFP, GPR68, GPR68-GFP, GPR4, or 336X-GFP. After 3 days, these cells were then lysed, and cell extracts were subjected to Steady-Glo luciferase assay (Promega™) according to the manufacturer's instructions. The results were normalized to cell titer, as determined using Cell Titer-Glo luminescence assay (Promega™). For some procedure, the cells were treated in serum-free medium, and were lysed on the third day.
Because GPR4, the paralog with highest homology with GPR68, was not covered in the initial GPCR profiling, whether OGM2 could inhibit GPR4 was tested by examining the effects of OGM2 on acid-induced serum responsive element (SRE) luciferase activity in HEK293 cells transfected with either GPR4 or GPR68. Mild acidification increased luciferase activity in GPR4 and GPR68 transfected cells above that of vector control.
Cas9^GPR68=GPR68 targeted sgRNA and Cas9; CTL=control; MoGPR68=GPR68 morpholino treatment. […] These cells were exposed to acidic media and assayed for luciferase activity as a readout of the receptor activity.

T18 sequence (P32246 whole entry, species assumed): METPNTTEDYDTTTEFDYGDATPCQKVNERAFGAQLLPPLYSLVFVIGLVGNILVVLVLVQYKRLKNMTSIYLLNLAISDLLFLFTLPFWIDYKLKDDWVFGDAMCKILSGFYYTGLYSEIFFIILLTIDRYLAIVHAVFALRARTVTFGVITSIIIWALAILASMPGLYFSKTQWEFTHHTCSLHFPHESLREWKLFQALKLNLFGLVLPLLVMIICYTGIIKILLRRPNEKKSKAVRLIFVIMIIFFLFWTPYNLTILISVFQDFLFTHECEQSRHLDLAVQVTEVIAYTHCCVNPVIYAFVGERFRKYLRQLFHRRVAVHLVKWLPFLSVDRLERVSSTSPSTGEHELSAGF
T9 sequence (Q99788 whole entry, species assumed): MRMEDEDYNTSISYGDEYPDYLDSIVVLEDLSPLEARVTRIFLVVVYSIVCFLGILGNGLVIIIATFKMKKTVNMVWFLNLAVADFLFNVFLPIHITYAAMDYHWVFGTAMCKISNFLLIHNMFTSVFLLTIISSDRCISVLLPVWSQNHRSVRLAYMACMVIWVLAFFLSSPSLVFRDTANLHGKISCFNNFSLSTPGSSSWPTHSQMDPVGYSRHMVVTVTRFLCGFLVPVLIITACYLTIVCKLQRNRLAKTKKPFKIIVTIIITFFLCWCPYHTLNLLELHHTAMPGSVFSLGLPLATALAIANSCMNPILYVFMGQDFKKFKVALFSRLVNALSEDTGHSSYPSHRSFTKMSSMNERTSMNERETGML
T27 sequence (O43614 whole entry): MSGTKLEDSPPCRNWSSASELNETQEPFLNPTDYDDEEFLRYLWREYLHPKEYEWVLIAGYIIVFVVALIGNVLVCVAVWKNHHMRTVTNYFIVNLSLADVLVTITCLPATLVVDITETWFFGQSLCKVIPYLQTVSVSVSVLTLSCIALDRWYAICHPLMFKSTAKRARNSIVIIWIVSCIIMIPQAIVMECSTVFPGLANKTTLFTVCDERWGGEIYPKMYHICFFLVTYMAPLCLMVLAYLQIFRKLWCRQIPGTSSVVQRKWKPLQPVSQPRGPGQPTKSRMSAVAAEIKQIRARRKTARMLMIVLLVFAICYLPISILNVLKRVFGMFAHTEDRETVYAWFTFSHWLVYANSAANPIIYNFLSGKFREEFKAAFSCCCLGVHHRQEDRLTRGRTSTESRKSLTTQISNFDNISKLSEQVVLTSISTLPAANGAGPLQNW
T26 sequence (P25090 whole entry): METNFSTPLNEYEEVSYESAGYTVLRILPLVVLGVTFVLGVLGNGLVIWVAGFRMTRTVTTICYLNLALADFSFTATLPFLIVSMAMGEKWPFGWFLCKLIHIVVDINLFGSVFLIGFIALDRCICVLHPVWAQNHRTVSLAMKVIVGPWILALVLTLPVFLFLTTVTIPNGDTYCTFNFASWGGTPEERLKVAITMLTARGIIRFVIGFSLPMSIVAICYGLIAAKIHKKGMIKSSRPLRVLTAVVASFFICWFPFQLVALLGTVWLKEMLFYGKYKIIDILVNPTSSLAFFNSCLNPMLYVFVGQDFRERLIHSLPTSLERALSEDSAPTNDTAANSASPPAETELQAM
T21 sequence (P16473 21-764): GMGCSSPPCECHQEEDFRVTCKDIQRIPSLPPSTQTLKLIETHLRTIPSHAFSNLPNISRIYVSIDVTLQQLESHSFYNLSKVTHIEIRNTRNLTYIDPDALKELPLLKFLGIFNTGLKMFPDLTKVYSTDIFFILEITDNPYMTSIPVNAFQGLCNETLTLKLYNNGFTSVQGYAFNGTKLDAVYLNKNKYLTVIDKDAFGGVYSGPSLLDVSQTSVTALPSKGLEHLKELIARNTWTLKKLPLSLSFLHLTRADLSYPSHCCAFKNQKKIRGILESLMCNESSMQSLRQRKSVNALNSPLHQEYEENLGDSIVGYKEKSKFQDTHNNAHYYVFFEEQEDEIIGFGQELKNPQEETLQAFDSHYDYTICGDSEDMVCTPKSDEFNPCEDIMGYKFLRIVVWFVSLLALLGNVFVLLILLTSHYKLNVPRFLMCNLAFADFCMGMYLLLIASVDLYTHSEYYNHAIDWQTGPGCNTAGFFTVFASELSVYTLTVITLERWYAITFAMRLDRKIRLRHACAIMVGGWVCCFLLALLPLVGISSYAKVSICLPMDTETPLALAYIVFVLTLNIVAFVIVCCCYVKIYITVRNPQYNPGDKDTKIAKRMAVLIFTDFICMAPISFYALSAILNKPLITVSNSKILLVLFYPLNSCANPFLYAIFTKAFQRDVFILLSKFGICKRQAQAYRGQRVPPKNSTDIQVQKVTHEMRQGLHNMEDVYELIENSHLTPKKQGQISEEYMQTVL
T25 sequence (Q99683 whole entry): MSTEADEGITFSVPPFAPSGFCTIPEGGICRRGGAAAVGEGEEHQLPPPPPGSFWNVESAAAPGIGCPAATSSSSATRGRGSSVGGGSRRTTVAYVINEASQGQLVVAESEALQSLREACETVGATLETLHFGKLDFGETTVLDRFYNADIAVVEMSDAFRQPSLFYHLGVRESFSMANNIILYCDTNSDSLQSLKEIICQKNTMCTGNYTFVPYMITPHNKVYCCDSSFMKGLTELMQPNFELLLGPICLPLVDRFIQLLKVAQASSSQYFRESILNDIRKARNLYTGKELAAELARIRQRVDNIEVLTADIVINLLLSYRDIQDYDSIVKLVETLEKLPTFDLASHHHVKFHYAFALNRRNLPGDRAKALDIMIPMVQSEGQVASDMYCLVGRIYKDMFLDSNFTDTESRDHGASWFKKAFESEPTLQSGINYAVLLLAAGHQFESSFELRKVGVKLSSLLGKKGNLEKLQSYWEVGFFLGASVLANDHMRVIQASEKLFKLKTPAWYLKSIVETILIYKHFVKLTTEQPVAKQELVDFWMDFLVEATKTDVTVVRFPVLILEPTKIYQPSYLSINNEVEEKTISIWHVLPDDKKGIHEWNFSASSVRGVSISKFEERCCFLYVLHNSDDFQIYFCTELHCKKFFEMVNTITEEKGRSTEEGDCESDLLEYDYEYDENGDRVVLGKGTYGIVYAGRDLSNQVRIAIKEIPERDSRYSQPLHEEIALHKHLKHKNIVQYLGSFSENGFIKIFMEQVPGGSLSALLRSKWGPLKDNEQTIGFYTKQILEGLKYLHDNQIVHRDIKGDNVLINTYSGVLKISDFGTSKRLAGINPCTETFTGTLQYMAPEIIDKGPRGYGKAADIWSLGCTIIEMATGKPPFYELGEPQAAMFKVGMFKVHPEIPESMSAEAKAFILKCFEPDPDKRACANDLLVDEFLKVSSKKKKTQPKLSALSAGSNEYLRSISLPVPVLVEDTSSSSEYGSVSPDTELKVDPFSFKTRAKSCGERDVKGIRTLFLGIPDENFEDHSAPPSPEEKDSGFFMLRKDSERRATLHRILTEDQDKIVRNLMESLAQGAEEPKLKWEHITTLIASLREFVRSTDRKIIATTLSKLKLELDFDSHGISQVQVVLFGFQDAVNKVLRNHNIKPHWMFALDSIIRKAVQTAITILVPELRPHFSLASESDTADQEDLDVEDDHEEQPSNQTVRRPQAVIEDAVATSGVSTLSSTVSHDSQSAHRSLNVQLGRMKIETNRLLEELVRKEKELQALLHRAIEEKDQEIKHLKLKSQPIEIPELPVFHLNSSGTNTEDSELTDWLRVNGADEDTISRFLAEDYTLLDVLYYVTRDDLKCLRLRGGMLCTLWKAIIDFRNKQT
T17 sequence (P54756 25-1037): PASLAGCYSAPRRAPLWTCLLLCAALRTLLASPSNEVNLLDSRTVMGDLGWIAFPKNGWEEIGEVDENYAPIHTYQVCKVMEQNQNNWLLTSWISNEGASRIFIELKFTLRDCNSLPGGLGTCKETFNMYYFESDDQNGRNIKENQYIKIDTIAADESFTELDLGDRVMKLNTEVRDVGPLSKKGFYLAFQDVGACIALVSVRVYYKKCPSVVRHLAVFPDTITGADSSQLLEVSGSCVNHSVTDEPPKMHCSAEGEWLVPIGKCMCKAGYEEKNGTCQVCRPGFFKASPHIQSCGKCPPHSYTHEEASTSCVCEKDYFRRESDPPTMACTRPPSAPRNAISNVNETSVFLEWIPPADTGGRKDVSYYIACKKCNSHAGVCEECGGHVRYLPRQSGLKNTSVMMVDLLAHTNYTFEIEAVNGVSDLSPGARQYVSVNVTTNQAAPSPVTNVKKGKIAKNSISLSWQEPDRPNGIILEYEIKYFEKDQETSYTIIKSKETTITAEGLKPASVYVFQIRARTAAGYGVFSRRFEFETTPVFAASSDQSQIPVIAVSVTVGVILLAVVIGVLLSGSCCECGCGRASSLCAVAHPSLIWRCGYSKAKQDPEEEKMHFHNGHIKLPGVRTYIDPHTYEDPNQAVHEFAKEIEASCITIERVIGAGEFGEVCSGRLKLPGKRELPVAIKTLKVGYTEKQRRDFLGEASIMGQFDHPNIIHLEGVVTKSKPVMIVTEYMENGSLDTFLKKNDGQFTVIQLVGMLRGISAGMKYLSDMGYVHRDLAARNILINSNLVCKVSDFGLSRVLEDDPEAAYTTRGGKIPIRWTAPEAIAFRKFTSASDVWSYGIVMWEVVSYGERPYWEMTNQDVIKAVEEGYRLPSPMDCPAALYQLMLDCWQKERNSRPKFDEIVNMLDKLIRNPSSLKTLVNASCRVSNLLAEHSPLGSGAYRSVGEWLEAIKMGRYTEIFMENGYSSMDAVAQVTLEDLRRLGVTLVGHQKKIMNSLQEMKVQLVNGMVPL
T24 sequence (Q13705 190-480 limits assumed): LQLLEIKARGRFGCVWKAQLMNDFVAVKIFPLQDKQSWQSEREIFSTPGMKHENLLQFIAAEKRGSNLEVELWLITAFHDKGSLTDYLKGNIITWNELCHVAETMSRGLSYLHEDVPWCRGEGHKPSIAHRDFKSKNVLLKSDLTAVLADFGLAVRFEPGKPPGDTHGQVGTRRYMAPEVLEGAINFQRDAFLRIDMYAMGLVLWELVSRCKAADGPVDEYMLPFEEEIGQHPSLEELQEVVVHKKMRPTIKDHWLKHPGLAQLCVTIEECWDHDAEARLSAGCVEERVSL

For `CCc1ccc2c(c1)C1(NN=C(c3cccc4ccccc34)S1)C(=O)N2` (stereo not drawn) [OGM1, 5-ethyl-5′-naphthalen-1-ylspiro[1H-indole-3,2′-3H-1,3,4-thiadiazole]-2-one], the remaining binding at 10 µM (MARK2) was 100%, the remaining binding at 10 µM (FAK) was 88% and the remaining binding at 10 µM (GCN2(Kin.Dom.2, S808G)) was 100%. For the same molecule, the remaining binding at 10 µM (NEK3) was 71%, the remaining binding at 10 µM (EGFR(G719C)) was 100% and the remaining binding at 10 µM (CAMK1) was 50%. It also gave a remaining binding at 10 µM (MLK1) of 100%, a remaining binding at 10 µM (EPHA3) of 78% and an Antagonism (ChemR23; 10 uM) of 0.1. The Agonism (ChemR23; 12.5 uM) was 0, the remaining binding at 10 µM (EGFR(T790M)) was 74% and the remaining binding at 10 µM (ERBB2) was 65%. The remaining binding at 10 µM (PRKCD) was 100%, the remaining binding at 10 µM (ROCK2) was 73% and the remaining binding at 10 µM (PIK4CB) was 71%. For the same molecule, the remaining binding at 10 µM (CAMK2A) was 75%, the remaining binding at 10 µM (PIK3CA(I800L)) was 100% and the remaining binding at 10 µM (EPHA5) was 97%. For the same molecule, the Antagonism (CCR1; 10 uM) was −0.6, the Agonism (CCR1; 12.5 uM) was −0.3 and the remaining binding at 10 µM (PCTK1) was 77%. It also gave a remaining binding at 10 µM (PKAC-beta) of 96%, an Antagonism (TSH; 10 uM) of 5.9 and an Agonism (TSH; 12.5 uM) of −0.1. It also gave a remaining binding at 10 µM (PDPK1) of 100%, a remaining binding at 10 µM (NLK) of 100% and a remaining binding at 10 µM (ACVR2B) of 100%. The remaining binding at 10 µM (ASK1) was 100%, the Antagonism (FPR2; 10 uM) was 23 and the Agonism (FPR2; 12.5 uM) was −0.4. It also gave an Antagonism (OX2; 10 uM) of −3.4 and an Agonism (OX2; 12.5 uM) of 0.2.
`CCc1ccc2c(c1)C1(NN=C(c3ccccc3)S1)C(=O)N2` (stereo not drawn) [OGM2] was tested, and the “acid-induced SRE-luciferase activity” value (GPR68) was “completely inhibited the signal”.
